# Measured values from US11590116B2 (THERAVANCE BIOPHARMA R&D IP, LLC, priority 2019, dated 2023).
# Legend:
# [1] = test system: TGF-β-stimulated SMAD3 phosphorylation in BEAS-2B cells; assay: Cellular ALK5 potency assay, inhibition of TGF-β stimulated pSMAD3 formation in BEAS-2B cells; assay type: cell-based; conditions: Homo sapiens; inhibition of TGF-β stimulated pSMAD3 formation, BEAS-2B cells; read-out: BEAS2B pIC50 (converted)
# How it was run: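 Cells seeded overnight; rinse with supplemented HBSS; compound 1 h at 37 °C; TGF-β 10 ng/mL final, 30 min; lyse; AlphaLISA acceptor and detector beads 2 h apart, read next day. Potency expressed as pIC50.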
# [2] = target: T1, recombinant human ALK5 (TGF-βR1) protein (Homo sapiens, UniProt P36897); assay: Biochemical ALK5 (TGF-βR1) assay to measure pKi (LANCE Ultra ULight kinase assay); conditions: apparent pKi from pIC50 by Cheng-Prusoff, read-out: ALK5 pKi (converted)
# T1 construct: purchased Life Technologies PR9075A
# T1 sequence (P36897 34-503): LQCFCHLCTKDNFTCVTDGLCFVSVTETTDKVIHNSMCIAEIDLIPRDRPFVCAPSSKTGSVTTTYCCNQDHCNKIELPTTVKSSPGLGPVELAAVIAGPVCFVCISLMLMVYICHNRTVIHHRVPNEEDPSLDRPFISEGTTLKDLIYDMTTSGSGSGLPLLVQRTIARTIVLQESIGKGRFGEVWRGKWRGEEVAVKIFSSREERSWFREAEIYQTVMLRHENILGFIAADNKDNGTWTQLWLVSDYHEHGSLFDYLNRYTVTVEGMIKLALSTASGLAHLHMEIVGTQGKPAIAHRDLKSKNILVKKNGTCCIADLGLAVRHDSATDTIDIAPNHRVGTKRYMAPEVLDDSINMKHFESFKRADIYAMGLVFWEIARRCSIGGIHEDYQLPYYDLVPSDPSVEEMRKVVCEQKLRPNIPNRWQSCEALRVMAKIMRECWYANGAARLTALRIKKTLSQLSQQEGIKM
# How it was run: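 After a 60 min room-temperature preincubation of ALK5 with compound, phosphorylation proceeds 60 min at 37 °C on ATP addition (125 μM as 5× stock). Detection: Eu-labelled phospho-Thr1342 Topo IIα antibody in EDTA buffer, pH 7.0; emission 665 nm.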
compound,measurement,setting,value
"Cc1nc(-c2n[nH]cc2-c2ccc3ncc(-c4cc5n(n4)CCNC5)cc3n2)ccc1F [Compound 391, 2-[3-(5-fluoro-6-methyl-2-pyridyl)-1H-pyrazol-4-yl]-7-(4,5,6,7-tetrahydropyrazolo[1,5-a]pyrazin-2-yl)-1,5-naphthyridine]",IC50,[1],< 20 nM
same,Ki,[2],< 0.0316 nM
"Cc1cccc(-c2[nH]cnc2-c2ccc3ncc(C4=CCC5(CCNCC5)CC4)cc3c2)n1 [Compound 392, 9-(6-(5-(6-methylpyridin-2-yl)-1H-imidazol-4-yl)quinolin-3-yl)-3-azaspiro[5.5]undec-8-ene]",IC50,[1],25.1 to 158 nM
same,Ki,[2],0.0398 to 0.316 nM
"Cc1cccc(-c2n[nH]cc2-c2ccc3ncc(-c4[nH]nc5c4CCN5)cc3n2)n1 [Compound 393, 2-[3-(6-methyl-2-pyridyl)-1H-pyrazol-4-yl]-7-(2,4,5,6-tetrahydropyrrolo[2,3-c]pyrazol-3-yl)-1,5-naphthyridine]",IC50,[1],25.1 to 158 nM
same,Ki,[2],< 0.0316 nM
"COc1[nH]nc(-c2cccc(C)n2)c1-c1ccc2ncc(NCCN3CCN(C(C)C)CC3)cc2n1 [Compound 394, N-[2-(4-isopropylpiperazin-1-yl)ethyl]-6-[5-methoxy-3-(6-methyl-2-pyridyl)-1H-pyrazol-4-yl]-1,5-naphthyridin-3-amine]",IC50,[1],200 to 1260 nM
same,Ki,[2],0.0398 to 0.316 nM
"Cc1cccc(-c2[nH]cnc2-c2ccc3ncc(-c4cncc(C(=O)O[C@@H]5CCN(C)C5)c4)cc3c2)n1 [Compound 396, [(3R)-1-methylpyrrolidin-3-yl] 5-[6-[5-(6-methyl-2-pyridyl)-1H-imidazol-4-yl]-3-quinolyl]pyridine-3-carboxylate]",IC50,[1],25.1 to 158 nM
same,Ki,[2],0.0398 to 0.316 nM
"Cc1cccc(-c2[nH]cnc2-c2ccc3ncc(-c4cccc(N5CC(N)C5)c4)cc3c2)n1 [Compound 397, 1-[3-[6-[5-(6-methyl-2-pyridyl)-1H-imidazol-4-yl]-3-quinolyl]phenyl]azetidin-3-amine]",IC50,[1],25.1 to 158 nM
same,Ki,[2],< 0.0316 nM
"Cc1cccc(-c2n[nH]cc2-c2ccc3ncc(-c4ccccc4)cc3n2)n1 [Compound 398, 2-[3-(6-methyl-2-pyridyl)-1H-pyrazol-4-yl]-7-phenyl-1,5-naphthyridine]",IC50,[1],< 20 nM
same,Ki,[2],< 0.0316 nM
"Cc1cccc(-c2nnn(C)c2-c2ccc3ncc(-c4cn[nH]c4)cc3c2)n1 [Compound 399, 6-[3-methyl-5-(6-methyl-2-pyridyl)triazol-4-yl]-3-(1H-pyrazol-4-yl)quinoline]",IC50,[1],< 20 nM
same,Ki,[2],< 0.0316 nM
"Cc1cccc(-c2n[nH]cc2-c2ccc3ncc(N4CCCN(C5CCCC5)CC4)cc3n2)n1 [Compound 400, 7-(4-cyclopentyl-1,4-diazepan-1-yl)-2-[3-(6-methyl-2-pyridyl)-1H-pyrazol-4-yl]-1,5-naphthyridine]",IC50,[1],200 to 1260 nM
same,Ki,[2],0.0398 to 0.316 nM
"CNCCn1cc(-c2cnc3ccc(-c4nc[nH]c4-c4ccc(F)c(C)n4)cc3c2)cn1 [Compound 401, 2-[4-[6-[5-(5-fluoro-6-methyl-2-pyridyl)-1H-imidazol-4-yl]-3-quinolyl]pyrazol-1-yl]-N-methyl-ethanamine]",IC50,[1],25.1 to 158 nM
same,Ki,[2],< 0.0316 nM
"Cc1cccc(-c2nn3c(c2-c2ccc4ncc(-c5cn[nH]c5)cc4c2)CNCC3)n1 [Compound 402, 6-[2-(6-methyl-2-pyridyl)-4,5,6,7-tetrahydropyrazolo[1,5-a]pyrazin-3-yl]-3-(1H-pyrazol-4-yl)quinoline]",IC50,[1],25.1 to 158 nM
same,Ki,[2],0.0398 to 0.316 nM
"Cc1cccc(-c2n[nH]cc2-c2ccc3ncc(N4CCC(N(C)CC(C)C)CC4)cc3n2)n1 [Compound 403, N-isobutyl-N-methyl-1-[6-[3-(6-methyl-2-pyridyl)-1H-pyrazol-4-yl]-1,5-naphthyridin-3-yl]piperidin-4-amine]",IC50,[1],25.1 to 158 nM
same,Ki,[2],0.0398 to 0.316 nM
"Cc1cccc(-c2[nH]cnc2-c2ccc3ncc(NCCN4CCC5(CC4)CNC5)cc3c2)n1 [Compound 404, N-[2-(2,7-diazaspiro[3.5]nonan-7-yl)ethyl]-6-[5-(6-methyl-2-pyridyl)-1H-imidazol-4-yl]quinolin-3-amine]",IC50,[1],200 to 1260 nM
same,Ki,[2],0.0398 to 0.316 nM
"Cc1cccc(-c2[nH]cnc2-c2ccc3ncc(-c4cnn(C5CCCNC5)c4)cc3c2)n1 (stereo not shown) [Compound 405, 6-[5-(6-methyl-2-pyridyl)-1H-imidazol-4-yl]-3-[1-(3-piperidyl)pyrazol-4-yl]quinoline]",IC50,[1],25.1 to 158 nM
same,Ki,[2],< 0.0316 nM
"Cc1cccc(-c2[nH]cnc2-c2ccc3ncc(NC(=O)C4CN5CCN4CC5)cc3c2)n1 (stereo not shown) [Compound 406, N-[6-[5-(6-methyl-2-pyridyl)-1H-imidazol-4-yl]-3-quinolyl]-1,4-diazabicyclo[2.2.2]octane-2-carboxamide]",IC50,[1],200 to 1260 nM
same,Ki,[2],0.0398 to 0.316 nM
"CNCCn1cc(-c2cnc3ccc(-c4nc[nH]c4-c4cccc(C)n4)nc3c2)cn1 [Compound 408, N-methyl-2-[4-[6-[5-(6-methyl-2-pyridyl)-1H-imidazol-4-yl]-1,5-naphthyridin-3-yl]pyrazol-1-yl]ethanamine]",IC50,[1],25.1 to 158 nM
same,Ki,[2],0.0398 to 0.316 nM
"Cc1cccc(-c2[nH]nnc2-c2ccc3ncc(N4CCNCC4)cc3c2)n1 [Compound 409, 6-[5-(6-methyl-2-pyridyl)-1H-triazol-4-yl]-3-piperazin-1-yl-quinoline]",IC50,[1],25.1 to 158 nM
same,Ki,[2],0.0398 to 0.316 nM
"Cc1cccc(-c2[nH]cnc2-c2ccc3ncc(C4=CCNC4)cc3n2)n1 [Compound 410, 7-(2,5-dihydro-1H-pyrrol-3-yl)-2-[5-(6-methyl-2-pyridyl)-1H-imidazol-4-yl]-1,5-naphthyridine]",IC50,[1],25.1 to 158 nM
same,Ki,[2],0.0398 to 0.316 nM
"Cc1cccc(-c2nnn(Cc3ccccc3)c2-c2ccc3ncc(N4CCCNCC4)cc3c2)n1 [Compound 411, 6-[3-benzyl-5-(6-methyl-2-pyridyl)triazol-4-yl]-3-(1,4-diazepan-1-yl)quinoline]",IC50,[1],25.1 to 158 nM
same,Ki,[2],0.0398 to 0.316 nM
"Cc1cccc(-c2[nH]cnc2-c2ccc3ncc(N4CCNCC4)cc3c2)n1 [Compound 412, 6-[5-(6-methyl-2-pyridyl)-1H-imidazol-4-yl]-3-piperazin-1-yl-quinoline]",IC50,[1],< 20 nM
same,Ki,[2],0.0398 to 0.316 nM
"Cc1nc(-c2[nH]cnc2-c2ccc3ncc(-c4cnn(C5CCCNC5)c4)cc3n2)ccc1F (stereo not shown) [Compound 413, 2-[5-(5-fluoro-6-methyl-2-pyridyl)-1H-imidazol-4-yl]-7-[1-(3-piperidyl)pyrazol-4-yl]-1,5-naphthyridine]",IC50,[1],25.1 to 158 nM
same,Ki,[2],0.0398 to 0.316 nM
"Cc1cccc(-c2[nH]cnc2-c2ccc3ncc(-c4cn5c(n4)CNCC5)cc3n2)n1 [Compound 414, 2-(5-(6-methylpyridin-2-yl)-1H-imidazol-4-yl)-7-(5,6,7,8-tetrahydroimidazo[1,2-a]pyrazin-2-yl)-1,5-naphthyridine]",IC50,[1],25.1 to 158 nM
same,Ki,[2],0.0398 to 0.316 nM
"Cc1cccc(-c2nc3ccccn3c2-c2ccc3ncc(-c4nc5n(n4)CCNC5)cc3n2)n1 [Compound 415, 2-[2-(6-methyl-2-pyridyl)imidazo[1,2-a]pyridin-3-yl]-7-(5,6,7,8-tetrahydro-[1,2,4]triazolo[1,5-a]pyrazin-2-yl)-1,5-naphthyridine]",IC50,[1],< 20 nM
same,Ki,[2],0.0398 to 0.316 nM
"Cc1cccc(-c2n[nH]cc2-c2ccc3ncc(-c4cncnc4)cc3n2)n1 [Compound 416, 2-[3-(6-methyl-2-pyridyl)-1H-pyrazol-4-yl]-7-pyrimidin-5-yl-1,5-naphthyridine]",IC50,[1],< 20 nM
same,Ki,[2],0.0398 to 0.316 nM
"Cc1cccc(-c2n[nH]cc2-c2ccc3ncc(C4=CCC(NC(C)C)CC4)cc3n2)n1 (stereo not shown) [Compound 417, N-isopropyl-4-[6-[3-(6-methyl-2-pyridyl)-1H-pyrazol-4-yl]-1,5-naphthyridin-3-yl]cyclohex-3-en-1-amine]",IC50,[1],25.1 to 158 nM
same,Ki,[2],< 0.0316 nM
"Cc1cccc(-c2[nH]cnc2-c2ccc3ncc(C4=CC[C@H](NC(=O)[C@@H]5CCCN5)CC4)cc3c2)n1 [Compound 418, (2S)—N-[(1R)-4-[6-[5-(6-methyl-2-pyridyl)-1H-imidazol-4-yl]-3-quinolyl]cyclohex-3-en-1-yl]pyrrolidine-2-carboxamide]",IC50,[1],25.1 to 158 nM
same,Ki,[2],0.0398 to 0.316 nM
"Cc1cccc(-c2[nH]ncc2-c2ccc3ncc(C(=O)OCC4CNC4)cc3n2)n1 [Compound 419, azetidin-3-ylmethyl 6-[5-(6-methyl-2-pyridyl)-1H-pyrazol-4-yl]-1,5-naphthyridine-3-carboxylate]",IC50,[1],25.1 to 158 nM
same,Ki,[2],0.0398 to 0.316 nM
"COc1ccc(-c2cnc3ccc(-c4c[nH]nc4-c4cccc(C)n4)nc3c2)cn1 [Compound 420, 7-(6-methoxy-3-pyridyl)-2-[3-(6-methyl-2-pyridyl)-1H-pyrazol-4-yl]-1,5-naphthyridine]",IC50,[1],< 20 nM
same,Ki,[2],< 0.0316 nM
"Cc1cccc(-c2[nH]ncc2-c2ccc3ncc(C(=O)O[C@@H]4CCN(C)C4)cc3n2)n1 [Compound 421, [(3R)-1-methylpyrrolidin-3-yl] 6-[5-(6-methyl-2-pyridyl)-1H-pyrazol-4-yl]-1,5-naphthyridine-3-carboxylate]",IC50,[1],25.1 to 158 nM
same,Ki,[2],0.398 to 3.16 nM
